Like-named read-outs stand apart in the source and are kept apart here.
Assays:
[1] = target: HCV NS3/4A protease genotype 1b (Hepatitis C virus genotype 1b, UniProt P26663); assay: HCV NS3/4A protease time-resolved fluorescence (TRF) assay, Ki against genotype 1b; type: biochemical; settings: IC50 [gt-1b] (nM), NS3/4A genotype 1b, enzyme 0.2 nM
How it was run: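 Ki values come from IC50 fits corrected for substrate concentration and KM. The time-resolved fluorescence protease reaction used 25 nM peptide substrate, 2.5 h, room temperature, pH 7.5 HEPES buffer, after 30 min enzyme–inhibitor preincubation.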

HCV genotype 1b replicon = assay: HCV replicon assay, genotype 1b replicon EC50; type: cell-based, Hepatitis C virus; settings: Hepatitis C virus, genotype 1b replicon, read-out: EC50 [gt-1b]
How it was run: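 Readout was replicon RNA copy number, by 32P-probe protection or TaqMan normalized to cellular cyclophilin A RNA, or luciferase activity for luciferase:Neo^r fusion lines. Cells were exposed to serially diluted compound for 24-48 hours without G418, then washed and lysed. EC50 derived from four-parameter fit relative to DMSO.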

Sequence of HCV NS3/4A protease genotype 1b (P26663 1027-1657): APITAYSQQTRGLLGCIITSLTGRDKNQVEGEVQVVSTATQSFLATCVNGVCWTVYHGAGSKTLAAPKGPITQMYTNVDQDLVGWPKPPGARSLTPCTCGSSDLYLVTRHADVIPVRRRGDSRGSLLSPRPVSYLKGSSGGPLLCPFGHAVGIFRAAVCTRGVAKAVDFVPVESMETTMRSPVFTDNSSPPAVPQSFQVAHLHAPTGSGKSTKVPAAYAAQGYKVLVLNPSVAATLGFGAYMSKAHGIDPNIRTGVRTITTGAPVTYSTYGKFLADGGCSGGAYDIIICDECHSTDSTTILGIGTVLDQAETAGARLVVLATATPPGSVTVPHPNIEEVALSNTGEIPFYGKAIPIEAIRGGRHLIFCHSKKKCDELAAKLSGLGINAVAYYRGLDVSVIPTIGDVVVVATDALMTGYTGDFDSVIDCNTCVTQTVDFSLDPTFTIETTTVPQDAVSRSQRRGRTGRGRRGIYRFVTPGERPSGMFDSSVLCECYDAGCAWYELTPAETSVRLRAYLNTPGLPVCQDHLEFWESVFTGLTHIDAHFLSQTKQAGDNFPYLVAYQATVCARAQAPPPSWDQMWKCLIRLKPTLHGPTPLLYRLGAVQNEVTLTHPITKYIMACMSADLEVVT
Sequence of HCV NS3/4A protease genotype 1b (P26663 1658-1711): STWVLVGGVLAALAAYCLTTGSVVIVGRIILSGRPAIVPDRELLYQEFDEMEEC

SMILES	IC50 ([1]; K+ salt) [nM]	EC50 (HCV genotype 1b replicon; K+ salt) [nM]	IC50 [1] [nM]	EC50 (HCV genotype 1b replicon) [nM]	EC50 (HCV genotype 1b replicon; GETYPE1B|GT1B) [nM]
COc1ccc2nc(C(F)F)c3c(c2c1)CC[C@]1(C[C@H]2C(=O)N[C@]4(C(=O)NS(=O)(=O)C5(C)CC5)C[C@H]4/C=C\CCCCC[C@H](NC(=O)OC(C)(C)C)C(=O)N2C1)O3 [Example 10, tert-butyl ((2R,6S,13aS,14aR,16aS,Z)-5′-(difluoromethyl)-9′-methoxy-14a-(((1-methylcyclopropyl)sulfonyl)carbamoyl)-5,16-dioxo-1′,2′,3,5,6,7,8,9,10,11,13a,14,14a,15, 16,16a-hexadecahydro-1H-spiro[cyclopropa[e]pyrrolo[1,2-a][1,4]diazacyclopentadecine-2,3′-pyrano[2,3-c]quinolin]-6-yl)carbamate]	0.013	1.11			
COc1ccc2nc(C)c3c(c2n1)CC[C@]1(C[C@H]2C(=O)N[C@]4(C(=O)NS(=O)(=O)C5(C)CC5)C[C@H]4/C=C\CCCCC[C@H](NC(=O)OC(C)(C)C)C(=O)N2C1)O3 [Example 11, tert-butyl (2R,6S,13aS,14aR,16aS,Z)-2′-methoxy-6′-methyl-14a-(1-methylcyclopropylsulfonylcarbamoyl)-5,16-dioxo-3,5,6,7,8,9,9′,10,10′,11,13a,14,14a,15,16,16a-hexadecahydro-1H-spiro[cyclopropa[e]pyrrolo[1,2-a][1,4]diazacyclopentadecine-2,8′-pyrano[2,3-c][1,5]naphthyridine]-6-ylcarbamate]			0.007	2.71	
COc1ccc2nc(C3CC3)c3c(c2c1)C(F)(F)C[C@]1(C[C@H]2C(=O)N[C@]4(C(=O)NS(=O)(=O)C5(C)CC5)C[C@H]4/C=C\CCCCC[C@H](NC(=O)OC(C)(C)C)C(=O)N2C1)O3 [Example 19, tert-Butyl (2S,6S,13aS,14aR,16aS,Z)-5′-cyclopropyl-1′,1′-difluoro-9′-methoxy-14a-(1-methylcyclopropylsulfonylcarbamoyl)-5,16-dioxo-1′,2′,3,5,6,7,8,9,10,11,13a,14,14a, 15,16,16a-hexadecahydro-1H-spiro[cyclopropa[e]pyrrolo[1,2-a][1,4]diazacyclopentadecine-2,3′-pyrano[2,3-c]quinoline]-6-ylcarbamate]	0.018	1.98			
COc1ccc2nc(C)c3c(c2c1)C(F)(F)C[C@]1(C[C@H]2C(=O)N[C@]4(C(=O)NS(=O)(=O)C5(C)CC5)C[C@H]4/C=C\CCCCC[C@H](NC(=O)OC(C)(C)C)C(=O)N2C1)O3 [Example 20, tert-Butyl (2S,6S,13aS,14aR,16aS,Z)-1′,1′-difluoro-9′-methoxy-5′-methyl-14a-(1-methylcyclopropylsulfonylcarbamoyl)-5,16-dioxo-1′,2′,3,5,6,7,8,9,10,11,13a,14,14a,15, 16,16a-hexadecahydro-1H-spiro[cyclopropa[e]pyrrolo[1,2-a][1,4]diazacyclopentadecine-2,3′-pyrano[2,3-c]quinoline]-6-ylcarbamate]	0.009	1.78			
Cc1nc2ccccc2c2c1O[C@@]1(C[C@H]3C(=O)N[C@]4(C(=O)NS(=O)(=O)C5(C)CC5)C[C@H]4/C=C\CCCCC[C@H](NC(=O)OC(C)(C)C)C(=O)N3C1)CC2(F)F [Example 25, tert-Butyl (2S,6S,13aS,14aR,16aS,Z)-1′,1′-difluoro-5′-methyl-14a-(1-methylcyclopropylsulfonylcarbamoyl)-5,16-dioxo-1′,2′,3,5,6,7,8,9,10,11,13a,14,14a,15,16,16a-hexadecahydro-1H-spiro[cyclopropa[e]pyrrolo[1,2-a][1,4]diazacyclopentadecine-2,3′-pyrano[2,3-c]quinoline]-6-ylcarbamate]			0.016	1.11	
Cc1nc2ccccc2c2c1O[C@]1(C=C2)C[C@H]2C(=O)N[C@]3(C(=O)NS(=O)(=O)C4CC4)C[C@H]3/C=C\CCCCC[C@H](NC(=O)OC(C)(C)C)C(=O)N2C1 [Example 26, tert-Butyl (2S,6S,13aS,14aR,16aS,Z)-14a-(cyclopropylsulfonylcarbamoyl)-5′-methyl-5,16-dioxo-3,5,6,7,8,9,10,11,13a,14,14a,15,16,16a-tetradecahydro-1H-spiro [cyclopropa[e]pyrrolo[1,2-a][1,4]diazacyclopentadecine-2,3′-pyrano[2,3-c]quinoline-]-6-ylcarbamate]			0.013	1.34	
COc1ccc2nc(C(F)F)c3c(c2c1Cl)CC[C@]1(C[C@H]2C(=O)N[C@]4(C(=O)NS(=O)(=O)C5(C)CC5)C[C@H]4/C=C\CCCCC[C@H](NC(=O)OC(C)(C)C)C(=O)N2C1)O3 [Example 28, tert-Butyl [(2R,6S,12Z,13aS,14aR,16aS)-10′-chloro-5′-(difluoromethyl)-9′-methoxy-14a-{[(1-methylcyclopropyl)sulfonyl]carbamoyl}-5,16-dioxo-1,1′,2′,5,6,7,8,9,10,11,13a,14,14a,15,16,16a-hexadecahydrospiro[cyclopropa[e]pyrrolo[1,2-a][1,4]diazacyclopentadecine-2,3′-pyrano[2,3-c]quinolin]-6-yl]carbamate]			0.016	14.7	
CC(C)(C)OC(=O)N[C@H]1CCCCC/C=C\[C@@H]2C[C@@]2(C(=O)NS(=O)(=O)C2(C)CC2)NC(=O)[C@@H]2C[C@]3(CCc4c(c(C5CC5)nc5ccc6c(c45)OCO6)O3)CN2C1=O [Example 29, tert-butyl (2′R,6′S,13a′S,14a′R,16a′S,Z)-7-cyclopropyl-14a′-(1-methylcyclopropylsulfonylcarbamoyl)-5′,16′-dioxo-3′,5′,6′,7′,8′,9′,10,10′,11,11′,13a′,14′, 14a′,15′,16′,16a′-hexadecahydro-1′H-spiro[[1,3]dioxolo[4,5-f]pyrano[2,3-c]quinoline-9,2′-cyclopropa[e]pyrrolo[1,2-a][1,4]diazacyclopentadecine]-6′-ylcarbamate]			0.021	0.608	
CC(C)(C)OC(=O)N[C@H]1CCCCC/C=C\[C@@H]2C[C@@]2(C(=O)NS(=O)(=O)C2(C)CC2)NC(=O)[C@@H]2C[C@]3(CCc4c(c(C(F)(F)F)nc5c(Cl)cccc45)O3)CN2C1=O [Example 31, tert-butyl ((2R,6S,13aS,14aR,16aS,Z)-7′-chloro-14a-(((1-methylcyclopropyl)sulfonyl)carbamoyl)-5,16-dioxo-5′-(trifluoromethyl)-1′,2′,3,5,6,7,8,9,10,11,13a,14,14a,15, 16,16a-hexadecahydro-1H-spiro[cyclopropa[e]pyrrolo[1,2-a][1,4]diazacyclopentadecine-2,3′-pyrano[2,3-c]quinolin]-6-yl)carbamate]			0.02	1.56	
COc1ccc2nc(C(F)(F)F)c3c(c2n1)C(F)C[C@]1(C[C@H]2C(=O)N[C@]4(C(=O)NS(=O)(=O)C5(C)CC5)C[C@H]4/C=C\CCCCC[C@H](NC(=O)OC(C)(C)C)C(=O)N2C1)O3 (stereo partly drawn) [Example 33, tert-butyl ((2S,6S,13aS,14aR,16aS,Z)-10′-fluoro-2′-methoxy-14a-(((1-methylcyclopropyl)sulfonyl)carbamoyl)-5,16-dioxo-6′-(trifluoromethyl)-3,5,6,7,8,9,9′,10,10′, 11,13a,14,14a,15,16,16a-hexadecahydro-1H-spiro[cyclopropa[e]pyrrolo[1,2-a][1,4]diazacyclopentadecine-2,8′-pyrano[2,3-c][1,5]naphthyridin]-6-yl)carbamate]			0.042	1.65	
COc1ccc2nc(C)c3c(c2c1)CC[C@]1(C[C@H]2C(=O)N[C@]4(C(=O)NS(=O)(=O)C5(C)CC5)C[C@H]4CCCCCCC[C@H](NC(=O)OC(C)(C)C)C(=O)N2C1)O3 [Example 34, tert-Butyl ((2R,6S,13aR,14aR,16aS)-9′-methoxy-5′-methyl-14a-(((1-methylcyclopropyl)sulfonyl)carbamoyl)-5,16-dioxo-1′,2′,3,5,6,7,8,9,10,11,12,13,13a,14,14a,15, 16,16a-octadecahydro-1H-spiro[cyclopropa[e]pyrrolo[1,2-a][1,4]diazacyclopentadecine-2,3′-pyrano[2,3-c]quinolin]-6-yl)carbamate]			0.013	1.79	
COc1ccc2nc(C)c3c(c2c1)CC[C@]1(C[C@H]2C(=O)N[C@]4(C(=O)NS(=O)(=O)C5(C)CC5)C[C@H]4CCCCCCC[C@H](NC(=O)OC(C)(C)C(F)(F)F)C(=O)N2C1)O3 [Example 35]			0.016		1.69
CCc1nc2ccc(OC)cc2c2c1O[C@]1(C[C@H]2F)C[C@H]2C(=O)N[C@]3(C(=O)NS(=O)(=O)C4(C)CC4)C[C@H]3/C=C\CCCCC[C@H](NC(=O)OCC(C)(C)C)C(=O)N2C1 [Example 36, Neopentyl((1′R,2S,6S,13aS,14aR,16aS,Z)-5′-ethyl-1′-fluoro-9′-methoxy-14a-(((1-methylcyclopropyl)sulfonyl)carbamoyl)-5,16-dioxo-1′,2′,3,5,6,7,8,9,10,11,13a,14,14a, 15,16,16a-hexadecahydro-1H-spiro[cyclopropa[e]pyrrolo[1,2-a][1,4]diazacyclopentadecine-2,3′-pyrano[2,3-c]quinolin]-6-yl)carbamate]			0.009	1.2	
CC(C)(C)OC(=O)N[C@H]1CCCCC/C=C\[C@@H]2C[C@@]2(C(=O)NS(=O)(=O)C2(C)CC2)NC(=O)[C@@H]2C[C@]3(CCc4c(c(CN5CCOCC5)nc5ccccc45)O3)CN2C1=O [Example 38, tert-butyl ((2R,6S,13aS,14aR,16aS,Z)-14a-(((1-methylcyclopropyl)sulfonyl)carbamoyl)-5′-(morpholinomethyl)-5,16-dioxo-1′,2′,3,5,6,7,8,9,10,11,13a,14,14a,15,16,16a-hexadecahydro-1H-spiro[cyclopropa[e]pyrrolo[1,2-a][1,4]diazacyclopentadecine-2,3′-pyrano[2,3-c]quinolin]-6-yl)carbamate]			0.058	22.1	

From US8987195B2 (priority 2012, dated 2015)
